Results: PubChem BioAssay (NCI)
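Compound exposure: 48 hours, 5 concentrations, 96-well plates. TGI is the concentration that stops growth completely.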

How the values were obtained:
Test in all cases: NCI anticancer screen, dose series, 48 h
M14 melanoma = test system: M14 melanoma
SK-OV-3 ovarian = test system: SK-OV-3 ovarian
MOLT-4 leukemia = test system: MOLT-4 leukemia
HOP-18 NSCLC = test system: HOP-18 NSCLC
M19-MEL melanoma = test system: M19-MEL melanoma
SK-MEL-28 melanoma = test system: SK-MEL-28 melanoma
HCT-116 colon = test system: HCT-116 colon
OVCAR-8 ovarian = test system: OVCAR-8 ovarian
NCI-H522 lung = test system: NCI-H522 lung
DMS 114 small cell lung = test system: DMS 114 small cell lung
HOP-92 NSCLC = test system: HOP-92 NSCLC
MALME-3M melanoma = test system: MALME-3M melanoma
UACC-62 melanoma = test system: UACC-62 melanoma
RXF 393 renal = test system: RXF 393 renal
NCI-H226 lung = test system: NCI-H226 lung
HOP-62 NSCLC = test system: HOP-62 NSCLC
SW-620 colon = test system: SW-620 colon
K-562 leukemia = test system: K-562 leukemia
CAKI-1 renal = test system: CAKI-1 renal
OVCAR-4 ovarian = test system: OVCAR-4 ovarian
DLD-1 colon = test system: DLD-1 colon
OVCAR-5 ovarian = test system: OVCAR-5 ovarian
SF-539 CNS = test system: SF-539 CNS
TK-10 renal = test system: TK-10 renal
COLO 205 colon = test system: COLO 205 colon
DMS 273 small cell lung = test system: DMS 273 small cell lung
SK-MEL-2 melanoma = test system: SK-MEL-2 melanoma
LOX IMVI melanoma = test system: LOX IMVI melanoma
NCI-H460 lung = test system: NCI-H460 lung
SF-268 CNS = test system: SF-268 CNS
IGROV1 ovarian = test system: IGROV1 ovarian
UACC-257 melanoma = test system: UACC-257 melanoma
SR leukemia = test system: SR leukemia
U251 CNS = test system: U251 CNS
A549 NSCLC = test system: A549 NSCLC
SN12C renal = test system: SN12C renal
HT29 colon = test system: HT29 colon
HCT-15 colon = test system: HCT-15 colon
UO-31 renal = test system: UO-31 renal
SF-295 CNS = test system: SF-295 CNS
NCI-H23 lung = test system: NCI-H23 lung
SK-MEL-5 melanoma = test system: SK-MEL-5 melanoma
ACHN renal = test system: ACHN renal
CCRF-CEM leukemia = test system: CCRF-CEM leukemia
SNB-75 CNS = test system: SNB-75 CNS
RPMI-8226 leukemia = test system: RPMI-8226 leukemia
KM12 colon = test system: KM12 colon
HL-60(TB) leukemia = test system: HL-60(TB) leukemia
LXFL 529 NSCLC = test system: LXFL 529 NSCLC
786-0 renal = test system: 786-0 renal
NCI/ADR-RES ovarian = test system: NCI/ADR-RES ovarian
EKVX NSCLC = test system: EKVX NSCLC
MDA-MB-435 = test system: MDA-MB-435
BT-549 breast = test system: BT-549 breast
T-47D breast = test system: T-47D breast
MDA-MB-231 breast = test system: MDA-MB-231 breast
HCC-2998 colon = test system: HCC-2998 colon
A498 renal = test system: A498 renal
SNB-19 CNS = test system: SNB-19 CNS
MCF7 breast = test system: MCF7 breast
DU-145 prostate = test system: DU-145 prostate
HS 578T breast = test system: HS 578T breast
OVCAR-3 ovarian = test system: OVCAR-3 ovarian
PC-3 prostate = test system: PC-3 prostate
MDA-N = test system: MDA-N

Measured: TGI

[N-]=[N+]=NC1(Cc2ccccc2)C(=O)c2cccc3c2N(CCC3)C1=O (centres undefined)
> 100 µM: M14 melanoma | SK-OV-3 ovarian | MOLT-4 leukemia | HOP-18 NSCLC | M19-MEL melanoma | SK-MEL-28 melanoma | HCT-116 colon | OVCAR-8 ovarian | NCI-H522 lung | DMS 114 small cell lung | HOP-92 NSCLC | MALME-3M melanoma | UACC-62 melanoma | RXF 393 renal | NCI-H226 lung | HOP-62 NSCLC | SW-620 colon | K-562 leukemia | CAKI-1 renal | OVCAR-4 ovarian | DLD-1 colon | OVCAR-5 ovarian | SF-539 CNS | TK-10 renal | COLO 205 colon | DMS 273 small cell lung | SK-MEL-2 melanoma | LOX IMVI melanoma | NCI-H460 lung | SF-268 CNS | IGROV1 ovarian | UACC-257 melanoma | SR leukemia | U251 CNS | A549 NSCLC | SN12C renal | HT29 colon | HCT-15 colon | UO-31 renal | SF-295 CNS | NCI-H23 lung | SK-MEL-5 melanoma | ACHN renal | CCRF-CEM leukemia | SNB-75 CNS | RPMI-8226 leukemia | KM12 colon | HL-60(TB) leukemia | LXFL 529 NSCLC | 786-0 renal

CC(C)NC(=O)OCc1c(COC(=O)NC(C)C)c(-c2cc[n+](COC(=O)C3CC3)cc2)n2c1CCC2
> 100 µM: M14 melanoma | NCI/ADR-RES ovarian | SK-OV-3 ovarian | MOLT-4 leukemia | SK-MEL-28 melanoma | HCT-116 colon | OVCAR-8 ovarian | EKVX NSCLC | NCI-H522 lung | MDA-MB-435 | BT-549 breast | HOP-92 NSCLC | MALME-3M melanoma | UACC-62 melanoma | RXF 393 renal | NCI-H226 lung | HOP-62 NSCLC | SW-620 colon | K-562 leukemia | T-47D breast | CAKI-1 renal | MDA-MB-231 breast | OVCAR-4 ovarian | OVCAR-5 ovarian | HCC-2998 colon | SF-539 CNS | TK-10 renal | COLO 205 colon | SK-MEL-2 melanoma | A498 renal | SNB-19 CNS | LOX IMVI melanoma | NCI-H460 lung | SF-268 CNS | IGROV1 ovarian | UACC-257 melanoma | SR leukemia | MCF7 breast | U251 CNS | DU-145 prostate | HS 578T breast | A549 NSCLC | SN12C renal | HT29 colon | HCT-15 colon | UO-31 renal | SF-295 CNS | OVCAR-3 ovarian | NCI-H23 lung | SK-MEL-5 melanoma | ACHN renal | CCRF-CEM leukemia | SNB-75 CNS | RPMI-8226 leukemia | PC-3 prostate | KM12 colon | MDA-N | HL-60(TB) leukemia | 786-0 renal
